This series is described as follows: solvent given as SMILES.

Where “and” joins values, the source holds several entries; their conditions need not be identical. Equal values may be shown once.

Turning to `COc1ccc2c(c1)N(c1ccc(C)cc1)c1cc3c(cc1=N2)Oc1c(cc(C(C)(C)C)cc1C(C)(C)C)N=3`, the absorption maximum is, setting by setting: (in CC#N) 540 nm; (in CCCCCC) 562 nm; (in CO) 555 nm.

`c1ccc(-c2nc3ccccc3nc2-c2cc(-c3nc4ccccc4nc3-c3ccccc3)cc(-n3c4ccccc4c4ccccc43)c2)cc1`: the absorption maximum (in Cc1ccccc1) stood at 340 nm.

Under “in ClC(Cl)Cl”, `CCCCCCCCCc1csc2cc(-c3cc(-c4cc5scc(CCCCCCCCC)c5s4)c4ccc5c(-c6cc7scc(CCCCCCCCC)c7s6)cc(-c6cc7scc(CCCCCCCCC)c7s6)c6ccc3c4c65)sc12` came in with an absorption maximum of 429 nm.

`c1ccc2c(c1)-c1ccccc1C21c2ccccc2-c2c1c1c3ccccc3ccc1c1ccccc21` had an absorption maximum (in C1CCOC1) of 377 nm.

Take `COc1ccc(-c2nc(-c3ccccc3)c(N(C)C)[se]2)cc1`: the absorption maximum (in ClC(Cl)Cl) is listed as 339 nm.

Where the note is “in CC#N”, `C=Cc1cc2ccc(OC(=O)c3ccccc3)cc2oc1=O` showed an absorption maximum of 328 nm.

For the compound `COc1ccc(/C=C/c2cc(/C=C/c3ccc(OC)cc3)nc(/C=C/c3ccc(C(F)(F)F)cc3)n2)cc1`, the absorption maximum (in ClCCl) is 370 nm.

As to `CCn1c2ccccc2c2cc(-c3cc(-c4ccc5c(c4)c4ccccc4n5CC)nc(C#N)n3)ccc21`, the absorption maximum came out at 381 nm (in C1CCOC1); 378 nm (in CCOC(C)=O); 387 nm (in CN(C)C=O); 380 nm (in Cc1ccccc1); 381 nm (in ClCCl).

With `CC1=CC(/C=C/c2ccc(C)cc2)=[N+]2C1=C(c1ccccc1)c1c(C)cc(/C=C/c3ccc(C)cc3)n1[B-]2(F)F`, for the setting “in CC1CCCO1”, the absorption maximum is on record as 631 nm.

As for `COc1ccc(O)c(C=O)c1`, the absorption maximum by setting is: (in CO) 359 nm; (in ClC(Cl)Cl) 364 nm.

As for `CN1C(=O)/C(=C/c2ccncc2)N=C1/C=C/c1ccccc1`, the absorption maximum is listed as 411 nm (in C1COCCO1); 408 nm (in CC#N); 411 nm (in CCO); 408 nm (in CCOC(C)=O); 408 nm (in O).

In turn, `CCCC1(CCC)c2ccccc2-c2ccccc21` displayed an absorption maximum (in C1CCCCC1) of 304 nm.

`CCCCCCCCCCOc1cc(OCCCCCCCCCC)cc(C2=C3C(C)=CC(/C=C/c4ccc(OC)cc4)=[N+]3[B-](F)(F)n3c(/C=C/c4ccc(OC)cc4)cc(C)c32)c1`: the absorption maximum (in ClC(Cl)Cl) came to 645 nm.

On to `CCOC(=O)c1sc(SC)c2c(=O)[nH]nnc12`, for which the absorption maximum runs as follows: (in C1CCOC1) 380.5 nm; (in CC#N) 381 nm; (in CCO) 385 nm; (in CN(C)C=O) 389 nm; (in CO) 384.5 nm; (in CS(C)=O) 387.5 nm.

In the case of `CCCCCCCCN1C(=O)c2ccc3c4c(-c5ccc6c7ccccc7n(-c7ccccc7)c6c5)cc5c6c(cc(-c7ccc8c9ccccc9n(-c9ccccc9)c8c7)c(c7ccc(c2c37)C1=O)c64)C(=O)N(CCCCCCCC)C5=O`, under “in ClC(Cl)Cl”, the absorption maximum was found to be 567 nm.

With `CCn1c2ccccc2c2cc(/C=C/c3cc(/C=C/c4ccc5c(c4)c4ccccc4n5CC)[n+](CCCS(=O)(=O)[O-])c(/C=C/c4ccc5c(c4)c4ccccc4n5CC)c3)ccc21`, the absorption maximum by setting is: (in C1CCOC1) 464 nm; (in CC#N) 458 nm; (in CC(C)=O) 462 nm; (in Cc1ccccc1) 466 nm.

For the setting “in O”, `[O-]c1ccc2ccccc2c1` yielded an absorption maximum of 346 nm.

Take `CC[Si](C)(C)c1cc2ccc3cccc4ccc(c1C(=O)NC(C)(C)C)c2c34`: the absorption maximum (in ClC(Cl)Cl) amounted to 381 nm.

For `CCC1=C(C)C2=C(c3cc(C4=C5C(C)=C(CC)C(C)=[N+]5[B-](F)(F)n5c(C)c(CC)c(C)c54)cc(C4=C5C(C)=C(CC)C(C)=[N+]5[B-](F)(F)n5c(C)c(CC)c(C)c54)c3)c3c(C)c(CC)c(C)n3[B-](F)(F)[N+]2=C1C`, the absorption maximum runs as follows: (in C1CCOC1) 534 nm; (in CC#N) 531 nm; (in CN(C)C=O) 539 nm; (in Cc1ccccc1) 537 nm; (in ClC(Cl)Cl) 538 nm.

Regarding `CC1(C)CC(=O)c2cc(F)cc(F)c2N1`, the absorption maximum reads like this: (in CC#N) 377 nm; (in CCO) 386 nm.

In the case of `CC(C)(C)c1ccc(N(c2ccc(C(C)(C)C)cc2)c2ccc3c(N(c4ccc(C(C)(C)C)cc4)c4ccc(C(C)(C)C)cc4)cc4c5cc(N(c6ccc(C(C)(C)C)cc6)c6ccc(C(C)(C)C)cc6)ccc5c(N(c5ccc(C(C)(C)C)cc5)c5ccc(C(C)(C)C)cc5)cc4c3c2)cc1`, the absorption maximum (in ClCCl) is 433 nm.

Consider `CCN1CCN(c2ccc(/N=N/c3cc(C(=O)OC)cc(C(=O)OC)c3)cc2)CC1`, for which, where the note is “in CCOC(C)=O”, the absorption maximum is reported as 416 nm.

Consider `C(#Cc1c(C#Cc2ccccc2)c(C#Cc2ccccc2)c(C#Cc2ccccc2)c(C#Cc2ccccc2)c1C#Cc1ccccc1)c1ccccc1`, for which the absorption maximum (in ClCCl) is recorded as 371 nm.

Compound `N#Cc1ccc(-n2c3ccccc3c3c2c2ccccc2n3-c2ccccc2)cc1` registered an absorption maximum (in Cc1ccccc1) of 359 nm.

Take `COc1c2ccccc2c(OC)c2c1c1c(F)cccc1n2C`: the absorption maximum was determined as 403 nm (in C1CCCCC1), 405 nm (in CC#N), 404 nm (in CO) and 406 nm (in ClCCl).

`O=Cc1cnc(-c2c3ccccc3cc3ccccc23)nc1`: the absorption maximum is listed as 381 nm (in CCO) and 384 nm (in ClCCl).

On to `COc1ccc(/C=C/c2ccc(-c3nnc(-c4ccc(-c5cc6ccccc6s5)cc4)o3)cc2)cc1`, for which the absorption maximum reads like this: (in CC#N) 337 nm; (in CC(C)=O) 341 nm; (in CCCCCCCC) 337 nm; (in CCCCCCCCCCO) 346 nm; (in CCCCCCCCO) 347 nm; (in CCCCCO) 346 nm. In addition, the absorption maximum by setting is: (in CCCO) 345 nm; (in CN(C)C=O) 351 nm; (in CO) 345 nm; (in CS(C)=O) 348 nm.

Take `C(#Cc1nc(C#Cc2ccccc2)c(C#Cc2ccccc2)c(C#Cc2ccccc2)c1C#Cc1ccccc1)c1ccccc1`: the absorption maximum (in ClCCl) was 421 nm.

Consider `CCOC(=O)c1c2c3c(ccc(OC)c3c3cc4ccccc4cc13)N(C)C2=O`, for which, for the setting “in CC#N”, the absorption maximum was 406 nm.

In turn, `CCCC1=Cc2nc1ccc1[nH]c(cc1CCOC)c1nc(ccc3[nH]c2cc3CCC)C(CCC)=C1` gave an absorption maximum (in Cc1ccccc1) of 637 nm.

In the case of `C[Si](C)(C)c1ccc(-c2ccc(-c3ccc(-c4ccc(-c5ccc([Si](C)(C)C)cc5)cc4)c4nsnc34)cc2)cc1`, the absorption maximum (in C1CCOC1) worked out at 401 nm.

Take `C#CCNC1=C2C=CC=[N+]2[B-](F)(F)n2cccc21`: the absorption maximum reads like this: (in C1CCCCC1) 422.5 nm and 426 nm; (in CC(C)=O) 406 nm; (in CCCCO) 406 nm; (in CCCO) 408 nm; (in CCO) 406.5 nm and 406 nm; (in CCOC(C)=O) 408.5 nm. The compound also had an absorption maximum (in CN(C)C=O) of 404 nm; an absorption maximum (in CO) of 405 nm; an absorption maximum (in CS(C)=O) of 404 nm; an absorption maximum (in Cc1ccccc1) of 421 nm; an absorption maximum (in ClC(Cl)Cl) of 418 nm; an absorption maximum (in OCC(F)(F)F) of 404 nm. Under “in c1ccccc1”, this compound gave an absorption maximum of 422 nm.

The compound `O=[N+]([O-])c1ccc(/C=C/c2c[nH]c3ccccc23)cc1` had an absorption maximum (in CC#N) of 410 nm, an absorption maximum (in CCCCCCC) of 393 nm, an absorption maximum (in CO) of 413 nm and an absorption maximum (in O) of 418 nm.

For the compound `CC(C)[Si](C#Cc1c2cc3ccccc3cc2c(C#C[Si](C)(C)C)c2cc3ccccc3cc12)(C(C)C)C(C)C`, for the setting “in ClCCl”, the absorption maximum is recorded as 642 nm.

Regarding `O=S(=O)(c1ccc2c(c1)c1ccccc1n2-c1ccccc1)c1ccc2c(c1)c1ccccc1n2-c1ccccc1`, the absorption maximum (in ClCCl) was found to be 290 nm.

`CCOC(=O)c1c(-c2c(Cl)c3ccccc3oc2=O)nn(-c2cccc(C)c2)c1C(=O)OCC`: for the setting “in ClCCl”, the absorption maximum worked out at 321 nm.

Under “in CS(C)=O”, `Cn1c2ccc(S(=O)(=O)Cl)cc2c(=O)c2cc(S(=O)(=O)Cl)ccc21` came in with an absorption maximum of 406 nm.

The compound `COc1ccc2c(CC(=O)NN)coc2c1` gave an absorption maximum (in C1CCOC1) of 290 nm; an absorption maximum (in CC#N) of 290 nm; an absorption maximum (in CC(C)=O) of 298 nm; an absorption maximum (in CCCCO) of 278 nm; an absorption maximum (in CCCO) of 289 nm; an absorption maximum (in CCO) of 291 nm. For the same compound, the absorption maximum by setting is: (in CCOC(C)=O) 300 nm; (in CN(C)C=O) 288 nm; (in CO) 290 nm; (in ClCCl) 287 nm.

`C(=C\c1ncc2ccccc2n1)/c1ccc(N2CCCCC2)cc1` returned an absorption maximum (in ClCCl) of 385 nm.

`COC(=O)c1ccc(/C=C2\N=C(c3ccc([N+](=O)[O-])cc3)NC2=O)cc1`: under “in C1COCCO1”, the absorption maximum turned out to be 405 nm.

On to `CCOC(=O)CN1C(=O)C2=C(c3ccc(C#N)cc3)N(CC(=O)OCC)C(=O)C2=C1c1ccc(C#N)cc1`, for which the absorption maximum reads like this: (in CC#N) 473 nm; (in CS(C)=O) 480 nm; (in Cc1ccccc1) 482 nm.

With `O=C(c1sc(-c2ccc(-c3cc(-c4cccs4)c(C(=O)N4CCOCC4)s3)s2)cc1-c1cccs1)N1CCOCC1`, under “in ClCCl”, the absorption maximum was 379 nm.

Under “in ClC(Cl)Cl”, `CC(=C(C#Cc1ccccc1)C#Cc1ccccc1)c1ccc(C(C)=C(C#Cc2ccccc2)C#Cc2ccccc2)cc1` gave an absorption maximum of 360 nm.

`C(#Cc1ccccc1)C(C#Cc1ccccc1)=Cc1cccc(C=C(C#Cc2ccccc2)C#Cc2ccccc2)c1` registered an absorption maximum (in ClC(Cl)Cl) of 349 nm.

With `CC1=C(c2ccc(-c3nc(-c4ccccc4)c(-c4ccccc4)[nH]3)cc2)S[C@]2(C)C1=C1C(=C3c4ccccc4C(C)[C@]32C)C(F)(F)C(F)(F)C1(F)F` (some centres undefined), where the note is “in C1CCOC1”, the absorption maximum was 589 nm.

For `Cc1cc(=O)[nH]c(=O)[nH]1`, under “in CC#N”, the absorption maximum is 256 nm.

The values above are taken from the Deep4Chem optical property database.
